IC50 data for 27 compounds are collected here from BindingDB's records for doi:10.1021/cb200305u (Harvard Medical School, 2012).

What all share (assay): In Vitro Kinase Assay
One test concerns the target T1, Aurora kinase C (Homo sapiens, UniProt Q9UQB9).
T1 sequence (Q9UQB9 whole entry): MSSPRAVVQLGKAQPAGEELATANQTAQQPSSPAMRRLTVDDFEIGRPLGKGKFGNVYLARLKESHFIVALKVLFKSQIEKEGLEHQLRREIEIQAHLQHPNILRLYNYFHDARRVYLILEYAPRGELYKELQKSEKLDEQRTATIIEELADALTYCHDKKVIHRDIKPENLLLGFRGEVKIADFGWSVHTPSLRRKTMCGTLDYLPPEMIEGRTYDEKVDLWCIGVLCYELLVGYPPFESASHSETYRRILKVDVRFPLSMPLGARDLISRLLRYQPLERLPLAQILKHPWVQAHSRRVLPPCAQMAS
The source says:
(§1) In vitro kinase assay of Aurora A, B, and C using Z-LYTE technology (Invitrogen) and ATP at Km apparent for each kinase.

A further test concerns the target T2, Aurora kinase A (Homo sapiens, UniProt O14965).
T2 sequence (O14965 whole entry): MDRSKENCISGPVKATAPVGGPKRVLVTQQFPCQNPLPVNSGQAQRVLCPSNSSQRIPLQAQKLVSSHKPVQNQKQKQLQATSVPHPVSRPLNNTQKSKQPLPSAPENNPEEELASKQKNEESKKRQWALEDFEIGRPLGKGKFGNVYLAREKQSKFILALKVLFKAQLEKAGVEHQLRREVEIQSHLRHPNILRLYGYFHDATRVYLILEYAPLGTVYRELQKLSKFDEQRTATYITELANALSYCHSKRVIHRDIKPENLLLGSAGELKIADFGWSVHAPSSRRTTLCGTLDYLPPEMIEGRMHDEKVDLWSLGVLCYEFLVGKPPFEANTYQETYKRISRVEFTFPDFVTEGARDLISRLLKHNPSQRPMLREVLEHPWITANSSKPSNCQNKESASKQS
Excerpt: as §1

A further test addresses Aurora kinase B (Homo sapiens, UniProt Q96GD4).
Excerpt: as §1

Sequence of Aurora kinase B (Q96GD4 whole entry): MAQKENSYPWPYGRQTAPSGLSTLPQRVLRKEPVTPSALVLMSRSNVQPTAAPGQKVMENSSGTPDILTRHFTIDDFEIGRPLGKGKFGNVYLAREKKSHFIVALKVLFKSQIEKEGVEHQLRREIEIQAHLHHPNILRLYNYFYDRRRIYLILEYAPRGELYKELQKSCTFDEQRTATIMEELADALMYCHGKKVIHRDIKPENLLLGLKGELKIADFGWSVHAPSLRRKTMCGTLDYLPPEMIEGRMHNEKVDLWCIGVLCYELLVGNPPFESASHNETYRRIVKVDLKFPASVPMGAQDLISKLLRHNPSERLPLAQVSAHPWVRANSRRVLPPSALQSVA

For `CCN(CCCOc1ccc2c(Nc3cc(CC(=O)Nc4cccc(F)c4)n[nH]3)ncnc2c1)CCOP(=O)(O)O`, the IC50 against Aurora kinase C was found to be 25.3 nM.
`CN1C(=O)c2ccccc2N(C)c2nc(Nc3ccc(S(N)(=O)=O)cc3)ncc21`: the 50% inhibitory concentration (IC50) turned out to be 3.4 nM on Aurora kinase A and 8.4 nM on Aurora kinase B.
For `CCN1CCN(C(=O)Cc2ccc(Nc3ncc(F)c(Nc4ccc(C(=O)Nc5ccccc5Cl)cc4)n3)cc2)CC1` [Aurora Inhibitor, 35], the results for the IC50 against Aurora kinase C, on Aurora kinase A and against Aurora kinase B were 432 nM, 3.2 nM and 1380 nM, respectively.
As to `CN1C(=O)c2ccccc2N(C)c2nc(Nc3ccc(N4CCC(O)CC4)cc3)ncc21` [Benzo[e]pyrimido[5,4-b][1,4]diazepin-6(11H)-one, 1], the results for the 50% inhibitory concentration (IC50) on Aurora kinase C and against Aurora kinase A were 24.6 nM and 5.6 nM, respectively.
As for `CN1CCN(c2ccc(Nc3ncc4c(n3)N(C)c3ccccc3C(=O)N4C)cc2)CC1` [Benzo[e]pyrimido[5,4-b][1,4]diazepin-6(11H)-one, 3], the values for the IC50 against Aurora kinase C, on Aurora kinase A and against Aurora kinase B were 40.5 nM, 7.2 nM and 25.9 nM, respectively.
Regarding `CN1C(=O)c2ccccc2N(C)c2nc(Nc3ccc(S(=O)(=O)N4CCC(O)CC4)cc3)ncc21` [Benzo[e]pyrimido[5,4-b][1,4]diazepin-6(11H)-one, 4], the IC50 against Aurora kinase A is 8.8 nM; against Aurora kinase B, 28.6 nM.
For `CC1CCN(S(=O)(=O)c2ccc(Nc3ncc4c(n3)N(C)c3ccccc3C(=O)N4C)cc2)CC1` [Benzo[e]pyrimido[5,4-b][1,4]diazepin-6(11H)-one, 5], in that order: 16.8 nM and 45.1 nM.
The matching figures for `CCN1CCN(C(=O)c2ccc(Nc3ncc4c(n3)N(C)c3ccccc3C(=O)N4C)cc2)CC1` [Benzo[e]pyrimido[5,4-b][1,4]diazepin-6(11H)-one, 7]: 5.9 nM and 15.2 nM.
For `CCN1CCN(C(=O)Cc2ccc(Nc3ncc4c(n3)N(C)c3ccccc3C(=O)N4C)cc2)CC1` [Benzo[e]pyrimido[5,4-b][1,4]diazepin-6(11H)-one, 8], in that order: 6.1 nM and 18.7 nM.
For `CN1C(=O)c2ccccc2N(C)c2nc(Nc3ccc(OCc4ccccn4)cc3)ncc21` [Benzo[e]pyrimido[5,4-b][1,4]diazepin-6(11H)-one, 9], the IC50 was determined as 18.4 nM against Aurora kinase A and 39.3 nM on Aurora kinase B.
For `CN1C(=O)c2ccccc2N(C)c2nc(Nc3ccc(OCc4cccc(F)c4)cc3)ncc21` [Benzo[e]pyrimido[5,4-b][1,4]diazepin-6(11H)-one, 10], in that order: 323 nM and 512 nM.
Regarding `CN1C(=O)c2ccccc2N(C)c2nc(Nc3ccc(OCc4cccc(Cl)c4)cc3)ncc21` [Benzo[e]pyrimido[5,4-b][1,4]diazepin-6(11H)-one, 11], the IC50 against Aurora kinase A was 83.9 nM; against Aurora kinase B, 352 nM.
Regarding `CN1CCN(C(=O)c2ccc(Nc3ncc4c(n3)N(C)c3ccccc3C(=O)N4C)cc2C(F)(F)F)CC1` [Benzo[e]pyrimido[5,4-b][1,4]diazepin-6(11H)-one, 12], the figures for the half-maximal inhibitory concentration (IC50) on Aurora kinase A and against Aurora kinase B were 9 nM and 84.8 nM, respectively.
The matching figures for `CN1CCN(c2ccc(Nc3ncc4c(n3)N(C)c3ccccc3C(=O)N4C)cc2C(F)(F)F)CC1` [Benzo[e]pyrimido[5,4-b][1,4]diazepin-6(11H)-one, 13]: 86.8 nM and 774 nM.
`CN1C(=O)c2ccccc2N(C)c2nc(Nc3ccc(OCc4ccccn4)c(Cl)c3)ncc21` [Benzo[e]pyrimido[5,4-b][1,4]diazepin-6(11H)-one, 14]: the IC50 is 53.2 nM at Aurora kinase A and 417 nM at Aurora kinase B.
For `CN1CCN(C(=O)c2cccc(Nc3ncc4c(n3)N(C)c3ccccc3C(=O)N4C)c2)CC1` [Benzo[e]pyrimido[5,4-b][1,4]diazepin-6(11H)-one, 15], in that order: 14.9 nM and 36.7 nM.
Take `CN1CCN(Cc2cccc(Nc3ncc4c(n3)N(C)c3ccccc3C(=O)N4C)c2)CC1` [Benzo[e]pyrimido[5,4-b][1,4]diazepin-6(11H)-one, 16]: the 50% inhibitory concentration (IC50) on Aurora kinase A was 10.7 nM; against Aurora kinase B, 19.8 nM.
With `CN1CCN(c2cccc(Nc3ncc4c(n3)N(C)c3ccccc3C(=O)N4C)c2)CC1` [Benzo[e]pyrimido[5,4-b][1,4]diazepin-6(11H)-one, 17], the results for the IC50 against Aurora kinase A and against Aurora kinase B were 11.9 nM and 55.8 nM, respectively.
For `CN1c2ccccc2C(=O)Nc2cnc(Nc3ccc(N4CCC(O)CC4)cc3)nc21` [Benzo[e]pyrimido[5,4-b][1,4]diazepin-6(11H)-one, 18], in that order: 98.5 nM and 216 nM.
On to `CN1C(=O)c2ccccc2N(C)c2nc(Nc3ccc(C(=O)N4CCC(O)CC4)c(C(F)(F)F)c3)ncc21` [Benzo[e]pyrimido[5,4-b][1,4]diazepin-6(11H)-one, 19], for which the half-maximal inhibitory concentration (IC50) on Aurora kinase A turned out to be 5.1 nM; against Aurora kinase B it was 43.7 nM.
Turning to `CN1C(=O)c2ccccc2N(C)c2nc(Nc3ccc(C(=O)N4CCC(O)CC4)c(Cl)c3)ncc21` [Benzo[e]pyrimido[5,4-b][1,4]diazepin-6(11H)-one, 20], the IC50 against Aurora kinase A stood at 3.2 nM; at Aurora kinase B it was 14.3 nM.
In the case of `Cc1cc(Nc2ncc3c(n2)N(C)c2ccccc2C(=O)N3C)ccc1C(=O)N1CCN(C)CC1` [Benzo[e]pyrimido[5,4-b][1,4]diazepin-6(11H)-one, 21], the IC50 on Aurora kinase A was 3.7 nM; against Aurora kinase B, 14.5 nM.
Take `COc1cc(Nc2ncc3c(n2)N(C)c2ccccc2C(=O)N3C)ccc1C(=O)N1CCN(O)CC1` [Benzo[e]pyrimido[5,4-b][1,4]diazepin-6(11H)-one, 22]: the IC50 turned out to be 2.6 nM on Aurora kinase A and 24.2 nM against Aurora kinase B.
The matching figures for `CCN1CCN(Cc2ccc(Nc3ncc4c(n3)N(C)c3c(C)cccc3C(=O)N4C)cc2C(F)(F)F)CC1` [Benzo[e]pyrimido[5,4-b][1,4]diazepin-6(11H)-one, 28]: 11.6 nM and 132 nM.
Consider `CCN1CCN(Cc2ccc(Nc3ncc4c(n3)N(C)c3c(F)cccc3C(=O)N4C)cc2C(F)(F)F)CC1` [Benzo[e]pyrimido[5,4-b][1,4]diazepin-6(11H)-one, 29], for which the IC50 on Aurora kinase C was found to be 595 nM; against Aurora kinase A it was 13.4 nM; at Aurora kinase B it was 487 nM.
As for `CCN1CCN(Cc2ccc(Nc3ncc4c(n3)N(C)c3cc(C)ccc3C(=O)N4C)cc2C(F)(F)F)CC1` [Benzo[e]pyrimido[5,4-b][1,4]diazepin-6(11H)-one, 30], the values for the half-maximal inhibitory concentration (IC50) at Aurora kinase A and at Aurora kinase B were 146 nM and 230 nM, respectively.
Consider `CCN1CCN(Cc2ccc(Nc3ncc4c(n3)N(C)c3cc(F)ccc3C(=O)N4C)cc2C(F)(F)F)CC1` [Benzo[e]pyrimido[5,4-b][1,4]diazepin-6(11H)-one, 31], for which the figures for the IC50 on Aurora kinase A and on Aurora kinase B were 298 nM and 586 nM, respectively.
